# Entries after “also recorded” stand apart in the source; their conditions may differ.
# Columns and labels:
# p38 MAP kinase = p38 MAP kinase (Homo sapiens, UniProt Q16539); conditions: various cell types and tissues; cited from earlier work
# NF-κB = assay: CCK-induced NF-κB activation in isolated pancreatic acinar cells (EMSA); type: cell-based, rat
# Description: To confirm that the effects of curcumin occur in the pancreatic acinar cell, the effects of curcumin on the activation of NF-κB and AP-1 in vitro in CCK-stimulated pancreatic acini. Pancreatic acini were prepared from rat pancreas using the collagenase digestion method as described by Pandol S J, et al. (1982) J. Biol. Chem. 257:12024–12029, which is herein incorporated by reference, and then incubated at 37° C. in 199 medium (GIBCO, Rockville, Md.) known in the art. See Blinman T A, et al. (2000); Gukovskaya A S, et al. (1997); Gulkovsky I, et al. (1998); and Zaninovic V, et al. (2000).
# EMSAs for NF-κB and AP-1 were performed on nuclear proteins extracted from each sample as provided above.
# Nuclear protein extracts were prepared by methods known in the art. See Blinman T A, et al. (2000); Gukovskaya A S, et al. (1997); Gukovsky I, et al. (1998); Pandol S J, et al. (1999); Vaquero E, et al. (2001); and Zaninovic V, et al. (2000). Briefly, samples of pancreatic tissue or isolated acini were rinsed in ice-cold PBS and homogenized in hypotonic Buffer A (20 mM β-glycerophosphate, 10 mM HEPES, pH 7.6, 1.5 mM MgCl2, 10 mM KCl, 10 mM Na2MoO4, 0.1 mM Na3VO4, 1 mM dithiothreitol (DTT), 1 mM phenylmethylsulfonyl fluoride (PMSF), 5 μg/ml each of protease inhibitors pepstatin, leupeptin, chymostatin, antipain and aprotinin). […]
# CCK receptor = biological target: T1, CCK receptor (Rattus norvegicus, UniProt P30551); assay: In vivo pancreatic secretion assay
# T1 construct: from tissue; host or cells: living rat, pancreas (acinar cells)
# T1 sequence (P30551 1-444): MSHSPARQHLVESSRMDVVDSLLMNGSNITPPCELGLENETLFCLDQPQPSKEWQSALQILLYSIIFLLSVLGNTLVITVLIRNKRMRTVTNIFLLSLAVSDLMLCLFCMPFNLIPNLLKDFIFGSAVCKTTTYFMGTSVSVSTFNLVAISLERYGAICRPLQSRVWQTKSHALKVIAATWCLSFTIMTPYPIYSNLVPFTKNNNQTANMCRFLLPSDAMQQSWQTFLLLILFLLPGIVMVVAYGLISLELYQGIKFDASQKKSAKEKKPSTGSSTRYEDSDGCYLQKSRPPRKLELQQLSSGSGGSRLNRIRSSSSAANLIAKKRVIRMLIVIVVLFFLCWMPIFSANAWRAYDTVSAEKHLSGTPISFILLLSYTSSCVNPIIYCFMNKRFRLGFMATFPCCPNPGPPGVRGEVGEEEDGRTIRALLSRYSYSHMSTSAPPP
# Description: To rule out the possibility that the effect of curcumin was through inhibition of the action of cerulein or CCK-8 on CCK receptor activation, the effect of pancreatic secretion was tested.
# Pancreatic secretion in test rats was measured in vivo by methods known in the art. See Gukovskaya A S, et al. (2002). Briefly, biliopancreatic secretion was allowed to drain freely for 30 minutes before initiation of the experiment. Then secretion was collected in tubes in 10-minute fractions to determine the basal amylase output, after which 0.25 μg/kg cerulein was given as an i.v. bolus and collection continued for 40 minutes in a similar manner. Collection volumes were measured by weigh, and the amylase output was calculated by determining amylase concentration in the collected fractions. The mean amylase output obtained from two consecutive 10-minute fractions after the stabilization period was taken as the basal secretion and considered as 100%. The results were expressed as percentage increase over basal amylase output 40 minutes after cerulein or vehicle infusion.
# AP-1 [1] = assay: EMSA for AP-1 on nuclear extracts from pancreatic tissue; type: in vivo; conditions: rat
# Description: Specifically, aliquots of nuclear extracts with equal amounts of protein (about 2 to about 10 mg) were mixed in 20 μl reactions with a buffer containing 10 mM HEPES (pH 7.8), 50 mM KCl, 0.1 mM EDTA, 1 mM DTT, 10% (vol/vol) glycerol, and 3 μg of poly(dI-dC). Binding reactions were started by the addition of c. 60,000 cpm of ^32P-labeled DNA probe and allowed to proceed for about 20 to about 25 minutes at room temperature. The oligonucleotide probe for NF-κB:
# 5′-[sequence] (SEQ ID NO: 2), containing phorbol ester responsive element (TRE, underlined), were annealed with their complementary strands and end-labeled using Klenow DNA polymerase I (Stratagene, La Jolla, Calif.).
# The samples were electrophoresed at room temperature in 0.5×TBE buffer (1× TBE: 89 mM Tris base, 89 mM boric acid, 2 mM EDTA) on a non-denaturing 4.5% polyacrylamide gel at 200 V. The gels were dried and directly analyzed in the PhosphorImager (Molecular Dynamics, Sunnyvale, Calif.).
# Nuclear protein extracts were prepared by methods known in the art. […] Briefly, samples of pancreatic tissue or isolated acini were rinsed in ice-cold PBS and homogenized in hypotonic Buffer A (20 mM β-glycerophosphate, 10 mM HEPES, pH 7.6, 1.5 mM MgCl2, 10 mM KCl, 10 mM Na2MoO4, 0.1 mM Na3VO4, 1 mM dithiothreitol (DTT), 1 mM phenylmethylsulfonyl fluoride (PMSF), 5 μg/ml each of protease inhibitors pepstatin, leupeptin, chymostatin, antipain and aprotinin). After incubating on ice for about 20 to about 25 minutes, the nonionic detergent Igepal CA-630 (Sigma, St. Louis, Mo.) was added to a final concentration of 0.3 to 0.4% (v/v), followed by an additional incubation on ice for about 1 to about 2 minutes. The crude nuclear pellet was collected by microcentrifugation for 30 seconds. The supernatant (cytosolic protein) was removed, and the nuclear pellet was resuspended in the high-salt buffer C (25% glycerol, 20 mM β-glycerophosphate, 10 mM HEPES, 1.5 mM MgCl2, 420 mM NaCl, 0.2 mM EDTA, 10 mM Na2MoO4, 0.1 mM Na3VO4, 1 mM DTT, 1 mM PMSF, 5 μg/ml each of protease inhibitors pepstatin, leupeptin, chymostatin, antipain and aprotinin. After rotating at 4° C. for up to 1 hour, nuclear membranes were pelleted by microcentrifugation for 10 minutes, and the clear supernatant (nuclear extract) was aliquoted and stored at −80° C. Protein concentration in the nuclear extract was determined by the Bio-Rad protein assay (Bio-Rad Laboratories, Hercules, Calif.).
# [2] = system: IL-6, TNF-α, KC and iNOS mRNA; assay: RT-PCR for pancreatic mRNA expression of inflammatory molecules; type: in vivo; conditions: rat
# Description: To determine whether the effects of curcumin on NF-κB and AP-1 activation translated into changes in the expression of inflammatory molecules, the effect of curcumin on pancreatic mRNA expression of several cytokines and other inflammatory molecules were measured by methods known in the art. See Blinman T A, et al. (2000); Gukovskaya A S, et al. (1999); Gukovsky I, et al. (1998); Pandol S J, et al. (1999); Vaquero E, et al. (2001); and Zaninovic V, et al. (2000). Briefly, total RNA was obtained from pancreatic tissue with TRI reagent (Molecular Research Center, Cincinnati, Ohio) and its quality was verified by ethidium bromide staining of rRNA bands on a denaturing agarose gel. RNA was reverse-transcribed with the SuperScript II preamplification kit (GIBCO-BRL, Rockville, Md.) and subjected to PCR with the rat gene specific, intron-spanning primers set forth in Target sequences were amplified at 56° C. using the same amount of cDNA for all primer sets. The RT-PCR products were all of expected size, and their identity was confirmed by direct sequencing. Negative controls were performed by omitting the RT step or cDNA template from the PCR amplification. The cycle number was adjusted between 22 (for the housekeeping ARP gene) and 36 cycles (for iNOS) in order to yield visible products within the linear amplification range. […]
# NF-κB and AP-1 = conditions: various cell types and tissues; cited from earlier work
# AP-1 [3] = assay: CCK-induced AP-1 activation in isolated pancreatic acinar cells (EMSA); type: cell-based, rat
# Description: To confirm that the effects of curcumin occur in the pancreatic acinar cell, the effects of curcumin on the activation of NF-κB and AP-1 in vitro in CCK-stimulated pancreatic acini. Pancreatic acini were prepared from rat pancreas using the collagenase digestion method as described by Pandol S J, et al. (1982) J. Biol. Chem. 257:12024–12029, which is herein incorporated by reference, and then incubated at 37° C. in 199 medium (GIBCO, Rockville, Md.) known in the art. […] EMSAs for NF-κB and AP-1 were performed on nuclear proteins extracted from each sample as provided above. Nuclear protein extracts were prepared by methods known in the art. […] Briefly, samples of pancreatic tissue or isolated acini were rinsed in ice-cold PBS and homogenized in hypotonic Buffer A (20 mM β-glycerophosphate, 10 mM HEPES, pH 7.6, 1.5 mM MgCl2, 10 mM KCl, 10 mM Na2MoO4, 0.1 mM Na3VO4, 1 mM dithiothreitol (DTT), 1 mM phenylmethylsulfonyl fluoride (PMSF), 5 μg/ml each of protease inhibitors pepstatin, leupeptin, chymostatin, antipain and aprotinin). After incubating on ice for about 20 to about 25 minutes, the nonionic detergent Igepal CA-630 (Sigma, St. Louis, Mo.) was added to a final concentration of 0.3 to 0.4% (v/v), followed by an additional incubation on ice for about 1 to about 2 minutes. The crude nuclear pellet was collected by microcentrifugation for 30 seconds. The supernatant (cytosolic protein) was removed, and the nuclear pellet was resuspended in the high-salt buffer C (25% glycerol, 20 mM β-glycerophosphate, 10 mM HEPES, 1.5 mM MgCl2, 420 mM NaCl, 0.2 mM EDTA, 10 mM Na2MoO4, 0.1 mM Na3VO4, 1 mM DTT, 1 mM PMSF, 5 μg/ml each of protease inhibitors pepstatin, leupeptin, chymostatin, antipain and aprotinin. After rotating at 4° C. for up to 1 hour, nuclear membranes were pelleted by microcentrifugation for 10 minutes, and the clear supernatant (nuclear extract) was aliquoted and stored at −80° C. Protein concentration in the nuclear extract was determined by the Bio-Rad protein assay (Bio-Rad Laboratories, Hercules, Calif.).
# [4] = 1 h with compound, then 0.1 μM CCK 30 min
# p38 MAP kinase, sequence (Q16539 whole entry): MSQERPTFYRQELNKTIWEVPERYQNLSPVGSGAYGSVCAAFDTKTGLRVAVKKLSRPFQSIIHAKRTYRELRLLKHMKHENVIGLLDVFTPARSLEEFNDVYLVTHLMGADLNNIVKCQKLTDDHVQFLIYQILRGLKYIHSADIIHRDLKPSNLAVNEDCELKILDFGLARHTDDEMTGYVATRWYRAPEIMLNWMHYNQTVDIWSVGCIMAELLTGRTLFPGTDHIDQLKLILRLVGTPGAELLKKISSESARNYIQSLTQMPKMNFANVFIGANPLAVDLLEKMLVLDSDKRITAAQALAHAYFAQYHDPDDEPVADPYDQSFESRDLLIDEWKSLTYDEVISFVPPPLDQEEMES
smiles,measurement,setting,value
COc1cc(/C=C/C(=O)CC(=O)/C=C/c2ccc(O)c(OC)c2)ccc1O [curcumin],effect on p38 MAP kinase,p38 MAP kinase,no effect
same,CCK-induced activation of NF-κB in isolated acinar cells,NF-κB; [4],inhibits; also recorded: abolished; also recorded: blocked; also recorded: attenuates; also recorded: not highly potent
same,basal NF-κB binding activity in acinar cells,"NF-κB; control cells, incubated without CCK",inhibited
same,effect on cerulein/CCK-induced pancreatic secretion in vivo,"CCK receptor; rat, versus without curcumin",not statistically different; also recorded: did not appear to have an effect
same,"cerulein-induced amylase secretion, of the basal amylase output","CCK receptor; rats treated with curcumin, 0.25 μg/kg cerulein i.v. bolus, 40 min, n=4",1000±37%
same,AP-1 activation in the pancreas,AP-1 [1]; cerulein pancreatitis,markedly attenuated; also recorded: inhibited
same,AP-1 activation in the pancreas,AP-1 [1]; ethanol/CCK pancreatitis,almost completely blocked; also recorded: inhibited
same,"pancreatic expression of IL-6, TNF-α, KC and iNOS",[2]; cerulein pancreatitis,markedly inhibited; also recorded: attenuated
same,"pancreatic expression of IL-6, TNF-α, KC and iNOS",[2]; ethanol/CCK pancreatitis,markedly inhibited; also recorded: attenuated
same,activation of NF-κB and AP-1,NF-κB and AP-1,inhibits
same,CCK-induced activation of AP-1 in isolated acinar cells,AP-1 [3]; [4],inhibits; also recorded: abolished; also recorded: blocked; also recorded: attenuates
same,basal AP-1 binding activity in acinar cells,AP-1 [3]; isolated acinar cells without CCK,inhibited

# — US7060733B2, “Methods for treating pancreatitis with curcumin compounds and inhibitors of reactive oxygen species” (The Regents of the University of California, priority 2002, dated 2006)
